How the values were obtained:
Format in all cases: biochemical
human 11-β-HSD-1 = human 11-β-HSD-1 (Homo sapiens (Human), UniProt P28845); assay: Inhibition of 11-β-HSD-1 enzyme assay (HTRF cortisol), human recombinant enzyme; conditions: human recombinant enzyme expressed in E. coli; cortisone/NADPH 200 nM/200 μM; 150 minutes at 37° C.
Description: (§1) Human recombinant 11-beta-hydroxysteroid dehydrogenase type 1 (11-β-HSD-1) enzyme was expressed in E. coli. Rat and mice liver microsome fractions were purchased from TEBU.
(§2) The 11-β-HSD-1 enzyme assay was carried out in 96 well microtiter plates in a total volume of 100 μl containing 30 mM Hepes buffer, pH 7.4 with 1 mM EDTA, substrate mixture cortisone/NADPH (200 nM/200 μM), G-6-P (1 mM) and inhibitors in serial dilutions. Reactions were initiated by addition of 10 μl 11-β-HSD-1 (3 μg) from E. coli, either as microsome fractions from rat and mice liver (2.5 μg). Following mixing, the plates were shaken for 150 minutes at 37° C. The reactions were terminated with 10 μl Acid-18beta glycyrrhetinic stop solution. Determinations of cortisol levels in 11-β-HSD-1 preparations were monitored by HTRF (HTRF cortisol assay from Cis bio international).

mouse 11-β-HSD-1 = mouse 11-β-HSD-1 (Mus musculus (Mouse), UniProt P50172); assay: Inhibition of 11-β-HSD-1 enzyme assay (HTRF cortisol), mice liver microsome fractions; conditions: cortisone/NADPH 200 nM/200 μM, 150 minutes at 37° C.
Description: as §1, §2

rat 11-β-HSD-1 = rat 11-β-HSD-1 (Rattus norvegicus (Rat), UniProt P16232); assay: Inhibition of 11-β-HSD-1 enzyme assay (HTRF cortisol), rat liver microsome fractions; conditions: cortisone/NADPH 200 nM/200 μM, 150 minutes at 37° C.
Description: as §1, §2

rat 11-β-HSD-1, sequence (P16232 whole entry): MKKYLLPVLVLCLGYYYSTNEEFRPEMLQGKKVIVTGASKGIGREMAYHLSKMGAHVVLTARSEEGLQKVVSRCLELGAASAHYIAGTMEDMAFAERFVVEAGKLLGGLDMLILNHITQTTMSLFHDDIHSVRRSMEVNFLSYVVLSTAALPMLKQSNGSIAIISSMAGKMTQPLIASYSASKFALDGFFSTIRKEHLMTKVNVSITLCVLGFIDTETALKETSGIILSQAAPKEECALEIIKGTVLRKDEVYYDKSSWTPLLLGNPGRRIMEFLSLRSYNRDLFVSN
mouse 11-β-HSD-1, sequence (P50172 whole entry): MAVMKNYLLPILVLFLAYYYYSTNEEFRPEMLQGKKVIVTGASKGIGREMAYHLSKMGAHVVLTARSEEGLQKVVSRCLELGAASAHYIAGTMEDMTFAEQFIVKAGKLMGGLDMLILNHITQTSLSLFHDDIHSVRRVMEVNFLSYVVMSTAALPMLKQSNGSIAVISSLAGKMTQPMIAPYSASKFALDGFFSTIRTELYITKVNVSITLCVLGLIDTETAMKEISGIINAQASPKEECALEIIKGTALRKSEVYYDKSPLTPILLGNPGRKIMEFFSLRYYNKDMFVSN
human 11-β-HSD-1, sequence (P28845 whole entry): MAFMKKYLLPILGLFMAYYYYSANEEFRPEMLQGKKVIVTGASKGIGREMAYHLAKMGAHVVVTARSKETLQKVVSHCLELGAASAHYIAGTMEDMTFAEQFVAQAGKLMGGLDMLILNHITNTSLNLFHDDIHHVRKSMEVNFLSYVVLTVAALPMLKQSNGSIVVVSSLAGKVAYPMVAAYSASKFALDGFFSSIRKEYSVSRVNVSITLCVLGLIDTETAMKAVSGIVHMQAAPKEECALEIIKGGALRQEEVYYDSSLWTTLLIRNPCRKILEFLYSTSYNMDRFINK

SMILES: O=C(N1CCC2(c3c[nH]c4ncccc34)CC12)C1(c2ccc(Cl)cc2)CC1 (stereo not drawn) [Compound 2, 3-(2-{[1-(4-chlorophenyl)cyclopropyl]carbonyl}-2-azabicyclo[3.1.0]hex-5-yl)-1H-pyrrolo[2,3-b]pyridine]
- IC50 (human 11-β-HSD-1): 22 nM
- IC50 (mouse 11-β-HSD-1): 1540 nM
- IC50 (rat 11-β-HSD-1): 1290 nM

— patent US8486964B2, “Fused pyrrolidino-cyclopropane derivatives as selective 11-beta-hydroxysteroid dehydrogenase type 1 inhibitors” (Merck Patent GmbH, priority 2009, dated 2013)
